# Laboratory results from patent US9150505B2, “Prophylactic or therapeutic agent for diabetes or obesity” (AJINOMOTO CO., INC., priority 2010, dated 2015).
# Key:
# NCI-H716 cells [1] = experiment: Promotion of GLP-1 secretion in NCI-H716 cells; assay type: cell-based, human; conditions: 30 minutes at 37° C., buffer assumed to be 1.0
# Description: Human appendix-derived cell line NCI-H716 (ATCC No CCL-251) was cultured in a 10% FBS-containing DMEM/HamF-12 medium at 37° C. in the presence of 5% CO2. NCI-H716 cells were seeded in a poly-D-lysine-coated 96-well plate at 100,000 cells/well and cultured for two days. Prior to sample addition, wells were washed with Hepes buffer (20 mM Hepes, 146 mM NaCl, 5 mM KCl, 1.5 mM CaCl2, 1 mM MgSO4, 5.5 mM D-glucose, 0.2% BSA, pH 7.4). Fifty μl of a sample solution dissolved in the same buffer was added and incubated at 37° C. for 30 minutes. The above-described compounds in Example 6 (Compound 1) (10 mM), Example 48 (Compound 2) (5 mM) and Example 14 (Compound 3) (2 mM) were used as the samples. In addition, a Hepes buffer was used as a control. After collecting the supernatant, the cells were precipitated by centrifugation (5,000×g, 1 min.) to collect the supernatant thereof. GLP-1 level in the supernatant was determined as described below according to a quantitative method for GLP-1 that uses GLP-1 receptor gene expression cells.
# According to a routine method (Lopez de Maturana R, Willshaw A, Kuntzsch A, Rudolph R, Donnelly D. J Biol Chem. 2003 Mar. 21; 278 (12):10195-200), human GLP-1 receptor gene (Nucleotide sequence 1) was integrated into pcDNA3.1 to prepare human GLP-1 receptor gene expression plasmid hGLP-1R/pcDNA3.1. Moreover, chimeric gene (Nucleotide sequence 2) of human Gα15 gene and human gustducin gene was integrated into pcDNA3.1 to prepare G protein expression plasmid Gα15-gust/pcDNA3.1. […] After 24 hours of cultivation in a CO2 incubator, changes in the fluorescence intensity were determined starting immediately after sample addition according to the Ca^2+ fluorescence indicator FLIPR Calcium 4 Assay Kit protocol (Molecular Devices) using FlexStation (Molecular Devices). Concentration dependency of human GLP-1 (7-36 Amide; Peptide Institute) with respect to the changes in the fluorescence intensity was determined and used as a standard curve for quantitating the sample. […]
# NCI-H716 cells [2] = experiment: Promotion of CCK secretion in NCI-H716 cells; assay type: cell-based, human
# Description: Human appendix-derived cell line NCI-H716 (ATCC No CCL-251) was cultured in a 10% FBS-containing DMEM/HamF-12 medium at 37° C. in the presence of 5% CO2. NCI-H716 cells were seeded in a poly-D-lysine-coated 24-well plate at 600,000 cells/well and cultured for two days. Prior to sample addition, wells were washed with Hepes buffer (20 mM Hepes, 146 mM NaCl, 5 mM KCl, 1.5 mM CaCl2, 1 mM MgSO4, 5.5 mM D-glucose, 0.02% BSA, pH 7.4). 300 μl of a sample solution dissolved in the same buffer was added and incubated at 37° C. for 30 minutes. Compound 1 in Example 6 (2 mM) and Compound 2 in Example 48 (1 mM) were used as the samples. In addition, a Hepes buffer was used as a control. After collecting the supernatant, the cells were precipitated by centrifugation (5,000×g, 1 min.) to collect the supernatant thereof, which was lyophilized in Speed Vac Concentrator (SAVANT) and dissolved by addition of 60 μl of water. CCK level in the solution was determined using Enzyme immuno assay kit (EK-069-04; PHENOIX PHARMACEUTICALS).
# normal mice (C57BL/6J) = experiment: Effects on gastric emptying using mouse (phenol red method); assay type: in vivo; conditions: 2.4 nmol/kg subcutaneously, 24 h fasted mice, phenol red 15 min after drug, stomach resected 20 min later; vehicle 82.4 ± 7.0%
# Description: A dosing vehicle (distilled water) or 3 mg/kg of the compound in Example 6 (Compound 1) was orally administered in a forced manner using a mouse sonde to normal mice (C57BL/6J, 7-week-old) after 24 hours of fasting. As positive controls, a group subcutaneously injected with Exendin-4 (Sigma) (2.4 nmol/kg) that was known to have an effect of suppressing gastric emptying was also prepared. 10 ml/kg of dosing vehicle was also orally administered to the mice of the Exendin-4 group. Fifteen minutes after drug administration, phenol red solution (0.5 mg/ml phenol red+1.5% methylcellulose+distilled water) was orally administered in a forced manner at a volume of 5 ml/kg. After another 20 minutes, the stomach was resected from each mouse and phenol red remaining in the stomach was extracted in 0.1N NaOH solution. Absorbance of the extracted solution was determined at 560 nm to quantitate the amount of remaining phenol red (S). While the amount of phenol red (C) extracted from the stomach resected immediately after the administration of phenol red was assumed to be 100%, the amount of remaining phenol red […] with respect to C was calculated, as a gastric emptying volume (%), based on the following expression. Gastric emptying volume(%)=(1−(S/C))×100
compound,measurement,setting,value
"Cc1c(Cl)cc(S(=O)(=O)O)cc1NC(=O)NC[C@H](N)C(=O)O [Example 14, (2S)-2-amino-3-{[(3-chloro-2-methyl-5-sulfophenyl)carbamoyl]amino}propanoic acid]",Relative secretion volumes (GLP-1),NCI-H716 cells [1]; 2 mM,3.54
"Cc1c(Cl)cc(NC(=S)NC[C@H](N)C(=O)O)cc1S(=O)(=O)O [Example 48, (2S)-2-amino-3-{[(3-chloro-4-methyl-5-sulfophenyl)carbamothioyl]amino}propanoic acid]",Relative secretion volumes (CCK),"NCI-H716 cells [2]; 1 mM, 30 minutes at 37° C., buffer assumed to be 1.0",2.22
same,effect of promoting CCK secretion,NCI-H716 cells [2]; result in words,confirmed to have an effect of promoting CCK secretion
same,Relative secretion volumes (GLP-1),NCI-H716 cells [1]; 5 mM,15.42
"Exendin-4: Positive control (Sigma), known to have an effect of suppressing gastric emptying",Gastric emptying volume,normal mice (C57BL/6J),51.2 ± 4.2% (*)
